Data reported in ChEMBL document CHEMBL4673331 (J Med Chem, 2020).
pIC50: −log10 of the molar value. Calls of active or inactive are those of the source. The calls are words filed in the database; no cut-off is given here.

How the values were obtained:
[1] = Intrinsic clearance in rat liver microsomes; assay type: ADME, Microsome; conditions: read-out: CLH
[2] = target: T1, Mucosa-associated lymphoid tissue lymphoma translocation protein 1 (Homo sapiens, UniProt Q9UDY8); assay: Allosteric inhibition of MALT1-mediated T cell activation in human Jurkat cells assessed as decrease in PMA induced IL2 activation preincubated for 1 hr followed by addition of PMA measured after 5.5 hrs by luciferase reporter gene assay; assay type: cell-based
T1 sequence (Q9UDY8 whole entry): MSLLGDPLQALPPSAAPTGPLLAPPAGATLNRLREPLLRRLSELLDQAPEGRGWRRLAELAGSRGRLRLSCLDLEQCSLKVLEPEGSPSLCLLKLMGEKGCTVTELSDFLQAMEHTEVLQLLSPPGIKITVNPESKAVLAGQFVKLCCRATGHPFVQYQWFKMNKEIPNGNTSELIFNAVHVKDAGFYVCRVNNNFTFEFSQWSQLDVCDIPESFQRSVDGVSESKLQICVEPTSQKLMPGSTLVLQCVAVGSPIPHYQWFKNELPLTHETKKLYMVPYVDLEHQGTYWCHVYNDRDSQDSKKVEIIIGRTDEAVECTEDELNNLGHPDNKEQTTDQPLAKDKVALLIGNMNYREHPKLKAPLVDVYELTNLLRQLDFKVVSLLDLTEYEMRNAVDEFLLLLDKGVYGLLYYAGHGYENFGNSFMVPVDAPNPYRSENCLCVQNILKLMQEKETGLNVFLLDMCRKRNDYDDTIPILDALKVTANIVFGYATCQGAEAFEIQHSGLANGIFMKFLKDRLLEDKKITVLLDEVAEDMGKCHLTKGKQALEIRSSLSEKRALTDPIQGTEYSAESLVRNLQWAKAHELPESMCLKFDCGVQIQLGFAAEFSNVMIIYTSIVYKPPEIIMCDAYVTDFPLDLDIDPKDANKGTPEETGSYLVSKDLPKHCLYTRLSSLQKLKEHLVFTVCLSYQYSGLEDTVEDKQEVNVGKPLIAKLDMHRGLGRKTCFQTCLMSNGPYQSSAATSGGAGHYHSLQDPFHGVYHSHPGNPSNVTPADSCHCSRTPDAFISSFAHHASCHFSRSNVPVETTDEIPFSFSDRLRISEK

BMDM = assay: Cytotoxicity against mouse Bone marrow-derived macrophage cells assessed as reduction in cell viability by [3H]-thymidine incorporation assay; assay type: cell-based
[3] = target: T2, Mucosa-associated lymphoid tissue lymphoma translocation protein 1 (Homo sapiens) (UniProt Q9UDY8); assay: Allosteric inhibition of MALT1 protease activity in human OCI-LY3 cells assessed as accumulation of uncleaved substrate CYLD incubated for 24 hrs by Western blot analysis; assay type: cell-based; conditions: OCILY3, filed as negative allosteric modulator, dose 50-5000 nM
T2 sequence (whole entry): T1 sequence (Q9UDY8 whole entry)

[4] = target: T2, Mucosa-associated lymphoid tissue lymphoma translocation protein 1 (Homo sapiens); assay: Allosteric inhibition of MALT1 protease activity in human OCI-LY3 cells assessed as accumulation of uncleaved substrate RELB incubated for 24 hrs by Western blot analysis; assay type: cell-based; conditions: OCILY3, filed as negative allosteric modulator, dose 50-5000 nM
[5] = target: T2, Mucosa-associated lymphoid tissue lymphoma translocation protein 1 (Homo sapiens); assay: Allosteric inhibition of MALT1 in human OCI-LY3 cells assessed as repression of IRF4 at 50 to 5000 nM incubated for 24 hrs by Western blot analysis; assay type: cell-based; conditions: OCILY3, filed as negative allosteric modulator, dose 50-5000 nM
[6] = Clearance in Sprague-Dawley rat at 1 mg/kg, iv administered as cassette dosing; assay type: ADME, organism-based; conditions: in vivo
[7] = Half-life in Balb/c mouse at 1 mg/kg, iv administered as cassette dosing; assay type: ADME, organism-based; conditions: in vivo
[8] = Half-life in Sprague-Dawley rat at 1 mg/kg, iv administered as cassette dosing; assay type: ADME, organism-based; conditions: in vivo
[9] = Volume of distribution at steady state in Sprague-Dawley rat at 1 mg/kg, iv administered as cassette dosing; assay type: ADME, organism-based; conditions: in vivo, read-out: Vdss
[10] = Dose normalized AUC (0 to 24 hrs) in Balb/c mouse at 3 mg/kg, po administered as cassette dosing; assay type: ADME, organism-based; conditions: in vivo
[11] = Dose normalized AUC (0 to 24 hrs) in Sprague-Dawley rat at 3 mg/kg, po administered as cassette dosing; assay type: ADME, organism-based; conditions: in vivo
[12] = Dose normalized Cmax in Sprague-Dawley rat at 3 mg/kg, po administered as cassette dosing; assay type: ADME, organism-based; conditions: in vivo
[13] = Drug concentration in Balb/c mouse blood at 10 mg/kg, po BID by LC-MS/MS analysis; assay type: ADME, organism-based; conditions: in vivo, read-out: Drug uptake
[14] = Drug concentration in Balb/c mouse blood at 30 mg/kg, po BID by LC-MS/MS analysis; assay type: ADME, organism-based; conditions: in vivo, read-out: Drug uptake
[15] = Drug concentration in Balb/c mouse blood at 100 mg/kg, po BID by LC-MS/MS analysis; assay type: ADME, organism-based; conditions: in vivo, read-out: Drug uptake
[16] = Drug concentration in Balb/c mouse blood at 10 mg/kg, po BID administered at 12 hrs interval immunized post 1 hr first treatment measured after 12 hrs post second dose by LC-MS/MS analysis; assay type: ADME, organism-based; conditions: whole blood, read-out: Drug uptake
[17] = Drug concentration in Balb/c mouse blood at 30 mg/kg, po BID administered at 12 hrs interval immunized post 1 hr first treatment measured after 12 hrs post second dose by LC-MS/MS analysis; assay type: ADME, organism-based; conditions: whole blood, read-out: Drug uptake
[18] = Drug concentration in Balb/c mouse blood at 100 mg/kg, po BID administered at 12 hrs interval immunized post 1 hr first treatment measured after 12 hrs post second dose by LC-MS/MS analysis; assay type: ADME, organism-based; conditions: whole blood, read-out: Drug uptake
Mus musculus = assay: Anti-autoimmune disease activity in Balb/c mouse assessed as reduction in anti-DNP induced IgG producing B cells at 30 mg/kg, po administered twice at 12 hrs interval immunized post 1 hr first treatment measured after 8 days by ELISA relative to control; assay type: functional, organism-based; conditions: time 8.0 day
[19] = Toxicity in Balb/c mouse assessed as histopathological changes at 10 to 100 mg/kg, po BID administered at 12 hrs interval immunized post 1 hr first treatment; assay type: organism-based; conditions: in vivo, dose 10-100 mg/kg

In the case of `C[C@H]1COC[C@H](C)N1c1c(NC(=O)Nc2ccnc(C(F)(F)F)c2)cnc2cc(Cl)nn12`, the microsomal CLint [1] was 42 µL/min/mg, the pIC50 [2] was 6.74 and the pIC50 (BMDM) was < 5.00. For the same compound, the inhibition [3] was “Dose-dependent effect”, the inhibition [4] was “Dose-dependent effect” and the inhibition [5] was “Active”. It also gave a clearance [6] of 41 mL/min/kg, a half-life [7] of 1.9 h and a half-life [8] of 3.2 h. For the same compound, the Vd [9] was 9.4 L/kg, the AUC/dose [10] was 3100 nM·h and the AUC/dose [11] was 547 nM·h. For the same compound, the Cmax/dose [12] was 46 nM, the concentration [13] was 2600 nM and the concentration [14] was 9300 nM. It also gave a concentration [15] of 23600 nM, a concentration at 12 h [16] of 40 nM and a concentration at 12 h [17] of 120 nM. For the same compound, the concentration at 12 h [18] was 690 nM, the Activity (Mus musculus) was “Active” and the Activity [19] was “Non-Toxic”.
